21 compounds from patent US11524966B1 (Valo Early Discovery, Inc., priority 2017, dated 2022) can be followed below.

Molecules are shown by their SMILES.

For this experiment, the target named is T1, USP28 (His-tagged USP28-FL-mammalian) (Homo sapiens, UniProt Q96RU2).
T1 construct: Expression of USP28 (1-1077)-TEV-6*His (pTT5 vector); made in house; host or cells: Expi293f cells (pTT5 vector)
T1 sequence (Q96RU2 1-1077): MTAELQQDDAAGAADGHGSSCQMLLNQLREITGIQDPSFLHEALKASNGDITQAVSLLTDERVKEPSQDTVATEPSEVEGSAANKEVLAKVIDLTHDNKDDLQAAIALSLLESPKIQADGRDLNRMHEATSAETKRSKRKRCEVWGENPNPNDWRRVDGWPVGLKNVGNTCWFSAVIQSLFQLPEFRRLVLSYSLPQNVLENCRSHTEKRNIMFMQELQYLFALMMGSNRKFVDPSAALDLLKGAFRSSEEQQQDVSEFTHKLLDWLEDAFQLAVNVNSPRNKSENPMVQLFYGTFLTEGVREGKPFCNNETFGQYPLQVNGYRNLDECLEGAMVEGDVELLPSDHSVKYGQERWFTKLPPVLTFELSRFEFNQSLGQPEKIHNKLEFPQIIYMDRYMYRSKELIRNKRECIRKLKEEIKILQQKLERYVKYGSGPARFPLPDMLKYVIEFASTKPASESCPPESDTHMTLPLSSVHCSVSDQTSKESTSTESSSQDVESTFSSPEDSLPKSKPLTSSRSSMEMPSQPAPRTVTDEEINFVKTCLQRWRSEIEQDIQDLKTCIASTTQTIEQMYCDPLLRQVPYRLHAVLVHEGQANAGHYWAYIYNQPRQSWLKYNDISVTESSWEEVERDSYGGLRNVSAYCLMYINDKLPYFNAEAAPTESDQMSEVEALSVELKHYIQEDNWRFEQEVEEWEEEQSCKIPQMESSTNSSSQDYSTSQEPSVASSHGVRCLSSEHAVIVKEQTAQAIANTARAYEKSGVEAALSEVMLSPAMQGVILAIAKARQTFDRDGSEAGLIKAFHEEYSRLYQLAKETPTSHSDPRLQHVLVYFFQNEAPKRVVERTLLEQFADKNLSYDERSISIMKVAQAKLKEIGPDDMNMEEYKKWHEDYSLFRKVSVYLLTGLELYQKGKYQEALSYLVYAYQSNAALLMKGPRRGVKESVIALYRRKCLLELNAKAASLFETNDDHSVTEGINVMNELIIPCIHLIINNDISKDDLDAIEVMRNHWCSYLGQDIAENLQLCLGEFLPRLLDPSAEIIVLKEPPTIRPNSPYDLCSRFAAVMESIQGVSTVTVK
In words: Ubiquitin-Rhodamine 110 Assay for USP28 Activity, Example A-1(a). It is filed as biochemical. Particulars: Ubiquitin-Rhodamine 110 assay, Example A-1(a); read-out: USP28 A-1(a) IC50 range. An outline of the steps:
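Full-length His-tagged USP28 (1-1077, Expi293F-expressed; […]) was preincubated 30 min with compound (25 μM–1.3 nM, 10-point 3-fold) in 20 mM Tris-HCl pH 8.0, 3 mM BME, 0.03% BGG, 0.01% Triton X-100. Ub-Rh110 (25 nM) was then added for 45 min at room temperature, stopped with citric acid, and read by fluorescence (485/535 nm).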
As to `CCO[C@H]1CN(c2ccc3c(c2)CC[C@H](NC(=O)c2sc4nc(C)ccc4c2N)C3)C[C@H]1N` [Example 268, 3-amino-N-[(2S)-6-[(3R,4S)-3-amino-4-ethoxypyrrolidin-1-yl]-1,2,3,4-tetrahydronaphthalen-2-yl]-6-methylthieno[2,3-b]pyridine-2-carboxamide], the IC50 (usually the concentration at which inhibition is half-maximal) lay within 50 to 200 nM. To `COC[C@H]1CN(c2cc(F)c3c(c2F)OC[C@H](NC(=O)c2sc4nc(C)cc(C)c4c2N)C3)C[C@H]1N` [Example 278, 3-amino-N-[(3R)-7-[(3S,4S)-3-amino-4-(methoxymethyl)pyrrolidin-1-yl]-5,8-difluoro-3,4-dihydro-2H-1-benzopyran-3-yl]-4,6-dimethylthieno[2,3-b]pyridine-2-carboxamide] belongs 1 to 50 nM; to `Cc1ccc2c(N)c(C(=O)N[C@H]3COc4cc(N5C[C@@H](N)[C@@]6(CCO6)C5)ccc4C3)sc2n1` [Example 339, 3-amino-N-[(3R)-7-[(4R,8R)-8-amino-1-oxa-6-azaspiro[3.4]octan-6-yl]-3,4-dihydro-2H-1-benzopyran-3-yl]-6-methylthieno[2,3-b]pyridine-2-carboxamide], 1 to 50 nM; to `CO[C@@]1(C)CN(c2ccc3c(c2)OC[C@H](NC(=O)c2sc4nc(C)ccc4c2N)C3)C[C@@H]1N` [Example 281, 3-amino-N-[(3R)-7-[(3S,4S)-4-amino-3-methoxy-3-methylpyrrolidin-1-yl]-3,4-dihydro-2H-1-benzopyran-3-yl]-6-methylthieno[2,3-b]pyridine-2-carboxamide], 1 to 50 nM.

For the compound `CO[C@@H]1CCN(c2ccc3c(c2)OC[C@H](NC(=O)c2sc4nc(C)cc(C)c4c2N)C3)C[C@H]1N` [Example 318, 3-amino-N-[(3R)-7-[(3R,4R)-3-amino-4-methoxypiperidin-1-yl]-3,4-dihydro-2H-1-benzopyran-3-yl]-4,6-dimethylthieno[2,3-b]pyridine-2-carboxamide], the concentration for half-maximal inhibition (IC50) is 1 to 50 nM. As for `CO[C@]1(C)CN(c2ccc3c(n2)CC[C@H](NC(=O)c2sc4nc(C)cnc4c2N)C3)C[C@H]1N` [Example 280, 7-amino-N-[(6S)-2-[(3R,4R)-4-amino-3-methoxy-3-methylpyrrolidin-1-yl]-5,6,7,8-tetrahydroquinolin-6-yl]-3-methylthieno[2,3-b]pyrazine-6-carboxamide], the figure is 200 to 2000 nM. To `Cc1ccc2c(N)c(C(=O)N[C@H]3COc4cc(N5C[C@H](N)[C@]6(CCO6)C5)ccc4C3)sc2n1` [Example 340, 3-amino-N-[(3R)-7-[(4S,8S)-8-amino-1-oxa-6-azaspiro[3.4]octan-6-yl]-3,4-dihydro-2H-1-benzopyran-3-yl]-6-methylthieno[2,3-b]pyridine-2-carboxamide] belongs 1 to 50 nM. Take `COC[C@@H]1CN(c2ccc3c(n2)CC[C@H](NC(=O)c2sc4nc(C)ccc4c2N)C3)C[C@H]1N` [Example 328, 3-amino-N-[(6S)-2-[(3S,4R)-3-amino-4-(methoxymethyl)pyrrolidin-1-yl]-5,6,7,8-tetrahydroquinolin-6-yl]-6-methylthieno[2,3-b]pyridine-2-carboxamide]: the IC50 was 200 to 2000 nM. As for `Cc1ccc2c(N)c(C(=O)N[C@H]3CCc4nc(N5C[C@@H](N)[C@@H](OC(C)C)C5)ccc4C3)sc2n1` [Example 322, 3-amino-N-[(6S)-2-[(3R,4S)-3-amino-4-(propan-2-yloxy)pyrrolidin-1-yl]-5,6,7,8-tetrahydroquinolin-6-yl]-6-methylthieno[2,3-b]pyridine-2-carboxamide], the figure is 200 to 2000 nM. As for `CCOC[C@@H]1CN(c2ccc3c(c2)OC[C@H](NC(=O)c2sc4nc(C)ccc4c2N)C3)C[C@@H]1N` [Example 313, 3-amino-N-[(3R)-7-[(3R,4R)-3-amino-4-(ethoxymethyl)pyrrolidin-1-yl]-3,4-dihydro-2H-1-benzopyran-3-yl]-6-methylthieno[2,3-b]pyridine-2-carboxamide], the figure is 1 to 50 nM; as for `COC[C@@]1(C)CN(c2ccc3c(n2)CC[C@H](NC(=O)c2sc4nc(C)ccc4c2N)C3)C[C@@H]1N` [Example 341, 3-amino-N-[(6S)-2-[(3S,4R)-4-amino-3-(methoxymethyl)-3-methylpyrrolidin-1-yl]-5,6,7,8-tetrahydroquinolin-6-yl]-6-methylthieno[2,3-b]pyridine-2-carboxamide], 50 to 200 nM. Turning to `Cc1ccc2c(N)c(C(=O)N[C@H]3COc4cc(N5C[C@H]6CCN[C@H]6C5)ccc4C3)sc2n1` [Example 305, N-[(3R)-7-[(3aR,6aR)-octahydropyrrolo[3,4-b]pyrrol-5-yl]-3,4-dihydro-2H-1-benzopyran-3-yl]-3-amino-6-methylthieno[2,3-b]pyridine-2-carboxamide], the IC50 lay in the range of 1 to 50 nM.

In the case of `Cc1ccc2c(N)c(C(=O)N[C@H]3COc4cc(N5C[C@@H](N)[C@@]6(CCCO6)C5)ccc4C3)sc2n1` [Example 308, 3-amino-N-[(3R)-7-[(5R,9R)-9-amino-1-oxa-7-azaspiro[4.4]nonan-7-yl]-3,4-dihydro-2H-1-benzopyran-3-yl]-6-methylthieno[2,3-b]pyridine-2-carboxamide], the IC50 fell in the range of 50 to 200 nM. To `CO[C@H]1[C@H](N)CN(c2ccc3c(c2)OC[C@H](NC(=O)c2sc4nc(C)ccc4c2N)C3)[C@H]1C` [Example 334, 3-amino-N-[(3R)-7-[(2S,3S,4R)-4-amino-3-methoxy-2-methylpyrrolidin-1-yl]-3,4-dihydro-2H-1-benzopyran-3-yl]-6-methylthieno[2,3-b]pyridine-2-carboxamide] belongs 1 to 50 nM; to `CO[C@H]1CN(c2ccc3c(n2)CC[C@H](NC(=O)c2sc4nc(C)ccc4c2N)C3)C[C@H]1N` [Example 270, 3-amino-N-[(6S)-2-[(3R,4S)-3-amino-4-methoxypyrrolidin-1-yl]-5,6,7,8-tetrahydroquinolin-6-yl]-6-methylthieno[2,3-b]pyridine-2-carboxamide], 50 to 200 nM; to `COC[C@@H]1CN(c2ccc3c(c2)OC[C@H](NC(=O)c2sc4nc(C)cc(C)c4c2N)C3)C[C@@H]1N` [Example 275, 3-amino-N-[(3R)-7-[(3R,4R)-3-amino-4-(methoxymethyl)pyrrolidin-1-yl]-3,4-dihydro-2H-1-benzopyran-3-yl]-4,6-dimethylthieno[2,3-b]pyridine-2-carboxamide], 1 to 50 nM.

For `Cc1ccc2c(N)c(C(=O)N[C@H]3COc4cc(N5C[C@@H](N)[C@@H](F)C5)ccc4C3)sc2n1` (single isomer, unassigned) [Example 3-5], the IC50 fell in the range of 1 to 50 nM. As for `Cc1ccc2c(N)c(C(=O)N[C@H]3COc4cc(N5CC[C@@H](N)C5)ccc4C3)sc2n1` [Example 288, 3-amino-N-[(3R)-7-[(3R)-3-aminopyrrolidin-1-yl]-3,4-dihydro-2H-1-benzopyran-3-yl]-6-methylthieno[2,3-b]pyridine-2-carboxamide], the figure is 1 to 50 nM; as for `CCOC[C@H]1CN(c2ccc3c(c2)OC[C@H](NC(=O)c2sc4nc(C)ccc4c2N)C3)C[C@H]1N` [Example 314, 3-amino-N-[(3R)-7-[(3S,4S)-3-amino-4-(ethoxymethyl)pyrrolidin-1-yl]-3,4-dihydro-2H-1-benzopyran-3-yl]-6-methylthieno[2,3-b]pyridine-2-carboxamide], 1 to 50 nM. To `COC[C@H]1CN(c2ccc3c(c2)OC[C@H](NC(=O)c2sc4nc(C)cc(C)c4c2N)C3)C[C@H]1N` [Example 276, 3-amino-N-[(3R)-7-[(3S,4S)-3-amino-4-(methoxymethyl)pyrrolidin-1-yl]-3,4-dihydro-2H-1-benzopyran-3-yl]-4,6-dimethylthieno[2,3-b]pyridine-2-carboxamide] belongs 1 to 50 nM; to `CCO[C@@H]1CN(c2ccc3c(c2)CC[C@H](NC(=O)c2sc4nc(C)ccc4c2N)C3)C[C@@H]1N` [Example 267, 3-amino-N-[(2S)-6-[(3S,4R)-3-amino-4-ethoxypyrrolidin-1-yl]-1,2,3,4-tetrahydronaphthalen-2-yl]-6-methylthieno[2,3-b]pyridine-2-carboxamide], 50 to 200 nM.
